In US5051438A, “Alkoxy-substituted dihydrobenzopyran-2-carboxylic acids and derivatives thereof, compositions and use” (G. D. Searle & Co., priority 1990, dated 1991):

Assays:
Human neutrophils [1] = experiment: Modified Boyden Chamber Chemotaxis, fMLP-induced; type: cell-based; details: 1.0×10^-8 M fMLP, 90 minutes, 37° C; for Relative Potency, Chemotaxis fMLP: potency relative to compound of Example 1(b), defined as 1.0
Source text: (§1) Neutrophils were purified from venous blood of normal human donors using standard techniques of dextran sedimentation, centrifugation on Ficoll-paque® (Pharmacia) or Histopaque® sterile solution (Sigma) and hypotonic lysis of erythrocytes (Boyum, A., Isolation of Leukocytes From Human Blood: Further Observations. Scand. J. Lab. Clin. Invest., 21 (Suppl. 97): 31, 1968). The purity of isolated neutrophils was >95%. […] A final cell suspension of 3.4×10^6 neutrophils/ml of HEPES-buffered Hanks' balanced salt solution (HBSS, pH 7.3) was added to the upper well (0.8 ml) of a modified Boyden chamber (blind well). […] Following a 90 minute incubation at 37° C. in 5% CO2 -95% air, cells from the lower well were lysed and nuclei counted in a Model S-Plus-IV Coulter Counter. Percent inhibition was calculated from cell counts corrected for random migration by subtracting the mean of the HBSS control. […] Pat. No. 4,889,871.

Human neutrophils [2] = experiment: Modified Boyden Chamber Chemotaxis, LTB4-induced; type: cell-based; details: 3×10^-8 M LTB4, 90 minutes, 37° C; for Relative Potency, Chemotaxis LTB4: potency relative to compound of Example 1(b), defined as 1.0
Source text: as §1

LTB4 Receptor = target: T1, LTB4 Receptor (Homo sapiens, UniProt Q15722); experiment: LTB4 Receptor Binding Assay; details: potency relative to compound of Example 1(b), defined as 1.0; 0.6×10^-9 M (^3H) LTB4, human neutrophils, 0° C, 45 minutes
T1 construct: Neutrophils were purified from venous blood of normal human donors; endogenous in cells; host or cells: neutrophils from venous blood of normal human donors (>95% pure)
T1 sequence (Q15722 whole entry): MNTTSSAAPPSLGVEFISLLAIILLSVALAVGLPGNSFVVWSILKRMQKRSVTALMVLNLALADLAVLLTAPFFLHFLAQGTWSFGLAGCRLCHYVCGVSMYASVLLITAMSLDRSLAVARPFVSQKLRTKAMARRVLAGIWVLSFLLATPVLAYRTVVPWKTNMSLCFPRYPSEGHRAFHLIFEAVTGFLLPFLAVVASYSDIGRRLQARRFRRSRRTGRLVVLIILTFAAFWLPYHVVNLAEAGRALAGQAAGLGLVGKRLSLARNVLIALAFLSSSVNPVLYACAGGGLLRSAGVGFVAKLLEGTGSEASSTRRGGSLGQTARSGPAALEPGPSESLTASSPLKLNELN
Method: Neutrophils were purified from venous blood of normal human donors using standard techniques of dextran sedimentation, centrifugation on Ficoll-paque® (Pharmacia) or Histopaque® sterile solution (Sigma) and hypotonic lysis of erythrocytes (Boyum, A., Isolation of Leukocytes From Human Blood: Further Observations. Scand. J. Lab. Clin. Invest., 21 (Suppl. 97): 31, 1968). […] The incubation was carried out at 0° C. for 45 minutes and terminated by adding 5 ml of ice-cold HBSS followed by rapid filtration of incubation mixture under vacuum through GF/C glass fiber filters. The filters were further washed with 10 ml HBSS and radioactivity was determined. […] All data refer to specific binding. […] Pat. No. 4,889,871.

[3] = Homo sapiens, Neutrophil, 1.5 h, value in parentheses

IC50 (Human neutrophils [1]; [3]) [µM]	IC50 (Human neutrophils [2]; [3]) [µM]	Relative Potency, LTB4 Receptor Binding (LTB4 Receptor)	Compound	Relative Potency, Chemotaxis fMLP (Human neutrophils [1])	Relative Potency, Chemotaxis LTB4 (Human neutrophils [2])
5.4	1.8	–	CCCc1c(OCCCOc2ccc(C(C)=O)c(OC)c2CCC)ccc2c1OC(C(=O)O)CC2 (centres unmarked) [Example 1(b), 7-[3-(4-acetyl-3-methoxy-2-propylphenoxy)propoxy]-3,4-dihydro-8-propyl-2H-1-benzopyran-2-carboxylic acid, reference compound]	–	–
–	–	0.70	CCCc1c(OCCCOc2ccc(-c3ccon3)c(OC)c2CCC)ccc2c1OC(C(=O)O)CC2 (centres unmarked) [Example 4, 3,4-Dihydro-7-[3-[4-(3-isoxazolyl)-3-methoxy-2-propylphenoxy]propoxy]-8-propyl-2H-1-benzopyran-2-carboxylic acid]	0.37	0.25
–	–	0.88	CCCc1c(OCCCOc2ccc(-c3cc[nH]n3)c(OC)c2CCC)ccc2c1OC(C(=O)O)CC2 (centres unmarked) [Example 6, 3,4-Dihydro-7-[3-[3-methoxy-2-propyl-4-(1H-pyrazol-3-yl)phenoxy]propoxy]-8-propyl-2H-1-benzopyran-2-carboxylic acid]	0.35	0.66
